In ChEMBL document CHEMBL1147487, “Synthesis and evaluation of substrate-mimicking cytosolic phospholipase A2 inhibitors--reducing the lipophilicity of the arachidonyl chain isostere” (Bioorg Med Chem Lett, 2004):

Target: not listed separately
Test: In vitro inhibition of human recombinant cytosolic phospholipase A2 (c-PLA2).

Row | IC50 [nM] | SMILES
1 | 250 | O=C(COc1ccc(OCc2ccc(Cl)c(Cl)c2)cc1)COc1ccc(C(=O)O)cc1
2 | 80 | O=C(COc1ccc(SCCCCCc2ccccc2)cc1)COc1ccc(C(=O)O)cc1
3 | 80 | O=C(COc1ccc(SCCCCCc2ccco2)cc1)COc1ccc(C(=O)O)cc1
4 | 12000 | O=C(COc1ccc(SCCCCC(=O)N2CCCCC2)cc1)COc1ccc(C(=O)O)cc1
5 | 140 | O=C(COc1ccc(OCCCCSc2nc3ccccc3o2)cc1)COc1ccc(C(=O)O)cc1
6 | 1000 | O=C(COc1ccc(C(=O)O)cc1)COc1ccc(S(=O)(=O)CCCCCc2ccccc2)cc1
7 | 20000 | O=C(COc1ccc(C(=O)O)cc1)COc1ccc(C(=O)NCCCCc2ccccc2)cc1
8 | 560 | O=C(COc1ccc(C(=O)O)cc1)COc1ccc2c(c1)C(=O)N(Cc1ccc(Cl)c(Cl)c1)C2=O
9 | 460 | O=C(COc1ccc(OCCCCCc2ccccc2)cc1)COc1ccc(C(=O)O)cc1
10 | 34000 | CN(CCc1ccccc1)C(=O)CSc1ccc(OCC(=O)COc2ccc(C(=O)O)cc2)cc1
11 | 63000 | Cn1ccnc1SCCCCOc1ccc(OCC(=O)COc2ccc(C(=O)O)cc2)cc1
12 | 270 | O=C(COc1ccc(C(=O)O)cc1)COc1ccc(-c2noc(CCCCc3ccccc3)n2)cc1
13 | 1800 | O=C(COc1ccc(C(=O)O)cc1)COc1ccc([S+]([O-])CCCCCc2ccccc2)cc1 (configuration not stated)
14 | 760 | O=C(COc1ccc(SCCCCSc2nccs2)cc1)COc1ccc(C(=O)O)cc1
15 | 5200 | O=C(COc1ccc(OCCCCCC2CCCO2)cc1)COc1ccc(C(=O)O)cc1 (configuration not stated)
16 | 90 | O=C(COc1ccc(C(=O)O)cc1)COc1ccc(-c2noc(Cc3ccc(Cl)c(Cl)c3)n2)cc1
17 | 1700 | CCOCCCCCCCOc1ccc(OCC(=O)COc2ccc(C(=O)O)cc2)cc1
18 | 180 | O=C(COc1ccc(C(=O)O)cc1)COc1ccc2c(c1)C(=O)N(CCCCc1ccccc1)C2=O
19 | 590 | O=C(COc1ccc(OCCCCCc2ccco2)cc1)COc1ccc(C(=O)O)cc1
20 | 30 | CCCCCCCCCCOc1ccc(OCC(=O)COc2ccc(C(=O)O)cc2)cc1
21 | 40 | O=C(COc1ccc(C(=O)O)cc1)COc1ccc(-c2noc(-c3ccc(Cl)c(Cl)c3)n2)cc1
22 | 50 | O=C(COc1ccc(C(=O)O)cc1)COc1ccc(C(=O)OCCCCCc2ccccc2)cc1

System: HL-60
Test: Inhibition of [3H]Arachidonic acid production by stimulated HL60 (human leukemia) cells.
Format: functional, cell-based

Row | IC50 [nM] | SMILES
23 | 2000 | O=C(COc1ccc(OCc2ccc(Cl)c(Cl)c2)cc1)COc1ccc(C(=O)O)cc1
24 | 5800 | O=C(COc1ccc(SCCCCCc2ccccc2)cc1)COc1ccc(C(=O)O)cc1
25 | 1000 | O=C(COc1ccc(SCCCCCc2ccco2)cc1)COc1ccc(C(=O)O)cc1
26 | 1100 | O=C(COc1ccc(OCCCCSc2nc3ccccc3o2)cc1)COc1ccc(C(=O)O)cc1
27 | 5200 | O=C(COc1ccc(C(=O)O)cc1)COc1ccc(S(=O)(=O)CCCCCc2ccccc2)cc1
28 | 1000 | O=C(COc1ccc(C(=O)O)cc1)COc1ccc2c(c1)C(=O)N(Cc1ccc(Cl)c(Cl)c1)C2=O
29 | 2600 | O=C(COc1ccc(OCCCCCc2ccccc2)cc1)COc1ccc(C(=O)O)cc1
30 | 760 | O=C(COc1ccc(C(=O)O)cc1)COc1ccc(-c2noc(CCCCc3ccccc3)n2)cc1
31 | 18000 | O=C(COc1ccc(C(=O)O)cc1)COc1ccc([S+]([O-])CCCCCc2ccccc2)cc1 (configuration not stated)
32 | 1100 | O=C(COc1ccc(SCCCCSc2nccs2)cc1)COc1ccc(C(=O)O)cc1
33 | 2700 | O=C(COc1ccc(C(=O)O)cc1)COc1ccc(-c2noc(Cc3ccc(Cl)c(Cl)c3)n2)cc1
34 | 760 | O=C(COc1ccc(C(=O)O)cc1)COc1ccc2c(c1)C(=O)N(CCCCc1ccccc1)C2=O
35 | 4800 | O=C(COc1ccc(OCCCCCc2ccco2)cc1)COc1ccc(C(=O)O)cc1
36 | 4700 | O=C(COc1ccc(C(=O)O)cc1)COc1ccc(-c2noc(-c3ccc(Cl)c(Cl)c3)n2)cc1
37 | 1300 | O=C(COc1ccc(C(=O)O)cc1)COc1ccc(C(=O)OCCCCCc2ccccc2)cc1
